SMILES strings stand for the structures. Where only a bound is given, the exact number is not on record here.

As usually defined, the mortality is the percentage killed.

The test system of this test is western corn rootworm. The test can be described thus: Test Example 5: corn seedling immersion test, western corn rootworm larvae. The test is classed as in vivo. The settings on record: Zea mays, 120 h, corn seedlings immersed 30 seconds, ten 2-instar larvae, five days later, read-out: mortality rate of insects. On the procedure: 1 mg of each test compound is dissolved in 50 μL of a mixed solution of polyoxyethylene sorbitan monococoate:acetone=5.95 (volume ratio). To the resultant is added water containing 0.03% by volume of a spreading agent, to prepare a diluted solution containing a predetermined concentration of the test compound.
Seeds of corn (Zea mays) are seeded onto a tray lined with wet Kimwipes, After the corn has grown for 5 days, die entire seedlings are immersed into the diluted solution for 30 seconds. Thereafter, two seedlings are put in a petri dish (diameter of 90 mm), and ten 2-instar larvae of western corn rootworm are released thereinto. Five days later, the number of dead insects is counted, and a mortality rate of insects is calculated by the following expression. Mortality rate of insects (%)=(number of dead insects/10)×100.

On to `CCSc1c(-c2ccc(OCC(F)(F)C(F)(F)F)cn2)nc2ccc(C(F)(F)F)cn12` [Compound 1], for which the mortality at 500 ppm was at least 80%.

Values taken from US10721929B2, “Heterocyclic compound and harmful-arthropod-controlling agent containing same” (Sumitomo Chemical Company, Limited, priority 2016, dated 2020).
